The results in this text go back to US20260022143A1, “Cyclic Peptide Inhibitors of IL-23” (JANSSEN PHARMACEUTICA NV, priority 2022, published 2026).

The structures appear in SMILES notation. Positions of bridges follow the written chain, without caps; N, C: chain ends. Non-standard residues stand in square brackets, D forms with d. Residues, ends and D or L forms follow the SMILES beside them. *: point of attachment. Me3N+(CH2)2O(CH2)2O(CH2)2CO = C[N+](C)(C)CCOCCOCCC(=O)*; Trp(7-Me) = Cc1cccc2c(C[C@H](N)C(=O)O)c[nH]c12; X83 = CN(CCC[N+](C)(C)CCCC[N+](C)(C)C)CC*; X9 = COCCOCCOCC[N+](C)(C)CCc1cn(CC*)nn1; CH2CH2OCH2CH2NMe3+ = C[N+](C)(C)CCOCC*; 2Nal = N[C@@H](Cc1ccc2ccccc2c1)C(=O)O; AEF = NCCOc1ccc(C[C@H](N)C(=O)O)cc1; X74 = C[N+]1(CCOCCOCC*)CCC(F)(F)CC1; X26 = C[N+](C)(C)CCCCc1cn(CC*)nn1; X32 = C(CCC*)CC[N+]12CCN(CC1)CC2; 3Pal = N[C@@H](Cc1cccnc1)C(=O)O; Lys(Me) = CNCCCC[C@H](N)C(=O)O; Pen = CC(C)(S)[C@H](N)C(=O)O; X8 = C[N+](C)(C)CCCCCCCC*; X66 = C[N+]1(CCC*)CCOCC1; Thp = NC1(C(=O)O)CCOCC1; X3 = C[N+](C)(C)CCCCC*; Sar = CNCC(=O)O

This data set in a line: Exposed Polar Surface Area (EPSA). The data set is classed as physicochemical. To be noted: SFC on Chirex 3014 column; sample 1 mM DMSO stock; read-out: EPSA. The gist of the method:
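EPSA, in Å^2, is read from SFC retention time through a linear relationship established with eight calibration standards. Separation uses a Chirex 3014 stationary phase, 35 °C, 14 MPa back pressure, and a 5–60% methanol/ammonium formate modifier gradient in CO2.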
With `CC(=O)N(C)CCCC[C@@H]1NC(=O)[C@H](Cc2c[nH]c3c(C)cccc23)NC(=O)[C@H]([C@@H](C)O)NC(=O)[C@H](CC(=O)N(C)C)NC(=O)[C@@H](NC(=O)CCOCCOCC[N+](C)(C)C)C(C)(C)SSC(C)(C)[C@@H](C(=O)N[C@@H](Cc2ccc(OCCC[N+]3(C)CCOCC3)cc2)C(=O)N[C@@H](Cc2ccc3ccccc3c2)C(=O)NC2(C(=O)N[C@@H](CCCCN(C)C(C)=O)C(=O)N[C@@H](CC(N)=O)C(=O)N[C@@H](Cc3cccnc3)C(=O)N(C)CC(=O)N(C)C)CCOCC2)NC1=O` [compound 274, cPEG3aCO-Pen(3)-N(N(Me)2)-T-7MeW-K(NMeac)-Pen(3)-MMoPF-2Nal-THP-K(NMeAc)-N-3Pya-Sar-CON(Me)2] ({Me3N+(CH2)2O(CH2)2O(CH2)2CO}-[Pen]D(NMe2)T[Trp(7-Me)][Lys(Me)](Ac)[Pen]Y(X66)[2Nal][Thp][Lys(Me)](Ac)N[3Pal][Sar]-NMe2; disulfide 1-6), the EPSA was 153 A^2. Then `CC(=O)N[C@@H]1C(=O)N[C@@H](CC(=O)N(C)C)C(=O)N[C@@H]([C@@H](C)O)C(=O)N[C@@H](Cc2c[nH]c3c(C)cccc23)C(=O)N[C@@H](CCCCN(C)C(C)=O)C(=O)N[C@H](C(=O)N[C@@H](Cc2ccc(OCCCCC[N+](C)(C)C)cc2)C(=O)N[C@@H](Cc2ccc3ccccc3c2)C(=O)NC2(C(=O)N[C@@H](COCCOCC[N+](C)(C)C)C(=O)N[C@@H](CC(N)=O)C(=O)N[C@@H](Cc3cccnc3)C(=O)N(C)CC(=O)N(C)C)CCOCC2)C(C)(C)SSC1(C)C` [compound 275, MeCO-Pen(3)-N(N(Me)2)-T-7MeW-K(NMeAc)-Pen(3)-TMAPF-2Nal-THP-APEG2Ser-N-3Pya-Sar-CON(Me)2] (Ac-[Pen]D(NMe2)T[Trp(7-Me)][Lys(Me)](Ac)[Pen]Y(X3)[2Nal][Thp]S(CH2CH2OCH2CH2NMe3+)N[3Pal][Sar]-NMe2; disulfide 1-6), with 149 A^2. For the molecule `CC(=O)N(C)CCCC[C@@H]1NC(=O)[C@H](Cc2c[nH]c3c(C)cccc23)NC(=O)[C@H]([C@@H](C)O)NC(=O)[C@H](CC(=O)N(C)C)NC(=O)[C@@H](NC(=O)CCOCCOCC[N+](C)(C)C)C(C)(C)SSC(C)(C)[C@@H](C(=O)N[C@@H](Cc2ccc(OCCN(C)CCC[N+](C)(C)CCCC[N+](C)(C)C)cc2)C(=O)N[C@@H](Cc2ccc3ccccc3c2)C(=O)NC2(C(=O)N[C@@H](CCCCN(C)C(C)=O)C(=O)N[C@@H](CC(N)=O)C(=O)N[C@@H](Cc3cccnc3)C(=O)N(C)CC(=O)N(C)C)CCOCC2)NC1=O` [compound 277, cPEG3aCO-Pen(3)-N(N(Me)2)-T-7MeW-K(NMeAc)-Pen(3)-AEF(SPD)-2Nal-THP-K(NMeAc)-N-3Pya-Sar-CON(Me)2] ({Me3N+(CH2)2O(CH2)2O(CH2)2CO}-[Pen]D(NMe2)T[Trp(7-Me)][Lys(Me)](Ac)[Pen]Y(X83)[2Nal][Thp][Lys(Me)](Ac)N[3Pal][Sar]-NMe2; disulfide 1-6), the EPSA was found to be 154 A^2. Turning to `CC(=O)NCCCC[C@@H]1NC(=O)[C@H](Cc2c[nH]c3c(C)cccc23)NC(=O)[C@H]([C@@H](C)O)NC(=O)[C@H](CC(=O)N(C)C)NC(=O)[C@@H](NC(C)=O)C(C)(C)SSC(C)(C)[C@@H](C(=O)N[C@@H](Cc2ccc(OCCN)cc2)C(=O)N[C@@H](Cc2ccc3ccccc3c2)C(=O)NC2(C(=O)N[C@@H](CCCCNC(C)=O)C(=O)N[C@@H](CC(N)=O)C(=O)N[C@@H](Cc3cccnc3)C(=O)N(C)CC(N)=O)CCOCC2)NC1=O` [compound 279, MeCO-Pen(3)-N(N(Me)2)-T-7MeW-K(Ac)-Pen(3)-AEF-2Nal-THP-K(Ac)-N-3Pya-Sar-CONH2] (Ac-[Pen]D(NMe2)T[Trp(7-Me)]K(Ac)[Pen][AEF][2Nal][Thp]K(Ac)N[3Pal][Sar]-NH2; disulfide 1-6), the EPSA is 163 A^2. For `CC(=O)N[C@@H]1C(=O)N[C@@H](CC(N)=O)C(=O)N[C@@H]([C@@H](C)O)C(=O)N[C@@H](Cc2c[nH]c3c(C)cccc23)C(=O)N[C@@H](CCCCN(C)C(C)=O)C(=O)N[C@H](C(=O)N[C@@H](Cc2ccc(OCCN)cc2)C(=O)N[C@@H](Cc2ccc3ccccc3c2)C(=O)NC2(C(=O)N[C@@H](CCCCN(C)C(C)=O)C(=O)N[C@@H](CC(N)=O)C(=O)N[C@@H](Cc3cccnc3)C(=O)N(C)CC(N)=O)CCOCC2)C(C)(C)SSC1(C)C` [compound 280] (Ac-[Pen]NT[Trp(7-Me)][Lys(Me)](Ac)[Pen][AEF][2Nal][Thp][Lys(Me)](Ac)N[3Pal][Sar]-NH2; disulfide 1-6 (inferred)) the value was 167 A^2. Then `CC(=O)NCCCC[C@@H]1NC(=O)[C@H](Cc2c[nH]c3c(C)cccc23)NC(=O)[C@H]([C@@H](C)O)NC(=O)[C@H](CC(N)=O)NC(=O)[C@@H](NC(C)=O)C(C)(C)SSC(C)(C)[C@@H](C(=O)N[C@@H](Cc2ccc(OCCN)cc2)C(=O)N[C@@H](Cc2ccc3ccccc3c2)C(=O)NC2(C(=O)N[C@@H](CCCCNC(C)=O)C(=O)N[C@@H](CC(N)=O)C(=O)N[C@@H](Cc3cccnc3)C(=O)N(C)CC(=O)N(C)C)CCOCC2)NC1=O` [compound 282] (Ac-[Pen]NT[Trp(7-Me)]K(Ac)[Pen][AEF][2Nal][Thp]K(Ac)N[3Pal][Sar]-NMe2; disulfide 1-6), with 163 A^2; and `COCCOCCOCC[N+](C)(C)CCc1cn(CCOc2ccc(C[C@H](NC(=O)[C@H]3NC(=O)[C@H](CCCCN(C)C(C)=O)NC(=O)[C@H](Cc4c[nH]c5c(C)cccc45)NC(=O)[C@H]([C@@H](C)O)NC(=O)[C@H](CC(=O)N(C)C)NC(=O)[C@@H](NC(=O)CCOCCOCC[N+](C)(C)C)C(C)(C)SSC3(C)C)C(=O)N[C@@H](Cc3ccc4ccccc4c3)C(=O)NC3(C(=O)N[C@@H](CCCCN(C)C(C)=O)C(=O)N[C@@H](CC(N)=O)C(=O)N[C@@H](Cc4cccnc4)C(=O)N(C)CC(=O)N(C)C)CCOCC3)cc2)nn1` [compound 283, cPEG3aCO-Pen(3)-N(N(Me)2)-T-7MeW-K(NMeAc)-Pen(3)-Y(OTzlChmPEG3)-2Nal-THP-K(NMeAc)-N-3Pya-Sar-CON(Me)2] ({Me3N+(CH2)2O(CH2)2O(CH2)2CO}-[Pen]D(NMe2)T[Trp(7-Me)][Lys(Me)](Ac)[Pen]Y(X9)[2Nal][Thp][Lys(Me)](Ac)N[3Pal][Sar]-NMe2; disulfide 1-6), with 146 A^2. Then `CC(=O)N(C)CCCC[C@@H]1NC(=O)[C@H](Cc2c[nH]c3c(C)cccc23)NC(=O)[C@H]([C@@H](C)O)NC(=O)[C@H](CC(=O)N(C)C)NC(=O)[C@@H](NC(=O)CCOCCOCC[N+](C)(C)C)C(C)(C)SSC(C)(C)[C@@H](C(=O)N[C@@H](Cc2ccc(OCCn3cc(CCCC[N+](C)(C)C)nn3)cc2)C(=O)N[C@@H](Cc2ccc3ccccc3c2)C(=O)NC2(C(=O)N[C@@H](CCCCN(C)C(C)=O)C(=O)N[C@@H](CC(N)=O)C(=O)N[C@@H](Cc3cccnc3)C(=O)N(C)CC(=O)N(C)C)CCOCC2)NC1=O` [compound 284, cPEG3aCO-Pen(3)-N(N(Me)2)-T-7MeW-K(NMeAc)-Pen(3)-Y(OTzlTMA4)-2Nal-THP-K(NMeAc)-N-3Pya-Sar-CON(Me)2] ({Me3N+(CH2)2O(CH2)2O(CH2)2CO}-[Pen]D(NMe2)T[Trp(7-Me)][Lys(Me)](Ac)[Pen]Y(X26)[2Nal][Thp][Lys(Me)](Ac)N[3Pal][Sar]-NMe2; disulfide 1-6), with 151 A^2; and `CC(=O)N(C)CCCC[C@@H]1NC(=O)[C@H](Cc2c[nH]c3c(C)cccc23)NC(=O)[C@H]([C@@H](C)O)NC(=O)[C@H](CC(=O)N(C)C)NC(=O)[C@@H](NC(=O)CCOCCOCC[N+](C)(C)C)C(C)(C)SSC(C)(C)[C@@H](C(=O)N[C@@H](Cc2ccc(OCCCCCC[N+]34CCN(CC3)CC4)cc2)C(=O)N[C@@H](Cc2ccc3ccccc3c2)C(=O)NC2(C(=O)N[C@@H](CCCCN(C)C(C)=O)C(=O)N[C@@H](CC(N)=O)C(=O)N[C@@H](Cc3cccnc3)C(=O)N(C)CC(=O)N(C)C)CCOCC2)NC1=O` [compound 292, cPEG3aCO-Pen(3)-N(N(Me)2)-T-7MeW-K(NMeAc)-Pen(3)-Diazabiclyclooctane6F-2Nal-THP-K(NMeAc)-N-3Pya-Sar-CON(Me)2] ({Me3N+(CH2)2O(CH2)2O(CH2)2CO}-[Pen]D(NMe2)T[Trp(7-Me)][Lys(Me)](Ac)[Pen]Y(X32)[2Nal][Thp][Lys(Me)](Ac)N[3Pal][Sar]-NMe2; disulfide 1-6), with 152 A^2. Take `CC(=O)N(C)CCCC[C@@H]1NC(=O)[C@H](Cc2c[nH]c3c(C)cccc23)NC(=O)[C@H]([C@@H](C)O)NC(=O)[C@H](CC(=O)N(C)C)NC(=O)[C@@H](NC(=O)CCOCCOCC[N+](C)(C)C)C(C)(C)SSC(C)(C)[C@@H](C(=O)N[C@@H](Cc2ccc(OCCCCCCCC[N+](C)(C)C)cc2)C(=O)N[C@@H](Cc2ccc3ccccc3c2)C(=O)NC2(C(=O)N[C@@H](CCCCN(C)C(C)=O)C(=O)N[C@@H](CC(N)=O)C(=O)N[C@@H](Cc3cccnc3)C(=O)N(C)CC(=O)N(C)C)CCOCC2)NC1=O` [compound 295, cPEG3aCO-Pen(3)-N(N(Me)2)-T-7MeW-K(NMeAc)-Pen(3)-TMA8F-2Nal-THP-K(NMeAc)-N-3Pya-Sar-CON(Me)2] ({Me3N+(CH2)2O(CH2)2O(CH2)2CO}-[Pen]D(NMe2)T[Trp(7-Me)][Lys(Me)](Ac)[Pen]Y(X8)[2Nal][Thp][Lys(Me)](Ac)N[3Pal][Sar]-NMe2; disulfide 1-6): the EPSA came out at 150 A^2.

Regarding `CC(=O)N(C)CCCC[C@@H]1NC(=O)[C@H](Cc2c[nH]c3c(C)cccc23)NC(=O)[C@H]([C@@H](C)O)NC(=O)[C@H](CC(=O)N(C)C)NC(=O)[C@@H](NC(=O)CCOCCOCC[N+](C)(C)C)C(C)(C)SSC(C)(C)[C@@H](C(=O)N[C@@H](Cc2ccc(OCCOCCOCC[N+]3(C)CCC(F)(F)CC3)cc2)C(=O)N[C@@H](Cc2ccc3ccccc3c2)C(=O)NC2(C(=O)N[C@@H](CCCCN(C)C(C)=O)C(=O)N[C@@H](CC(N)=O)C(=O)N[C@@H](Cc3cccnc3)C(=O)N(C)CC(=O)N(C)C)CCOCC2)NC1=O` [compound 298, cPEG3aCO-Pen(3)-N(N(Me)2)-T-7MeW-K(NMeAc)-Pen(3)-dFPPEG3F-2Nal-THP-K(NMeAc)-N-3Pya-Sar-CON(Me)2] ({Me3N+(CH2)2O(CH2)2O(CH2)2CO}-[Pen]D(NMe2)T[Trp(7-Me)][Lys(Me)](Ac)[Pen]Y(X74)[2Nal][Thp][Lys(Me)](Ac)N[3Pal][Sar]-NMe2; disulfide 1-6), the EPSA stood at 149 A^2.
